1 compound from US20240390308A1, “APPLICATION METHOD OF POTASSIUM ION CHANNEL BLOCKER IN PREPARATION OF DRUGS FOR TREATING LIVER FIBROSIS” (Affiliated Hospital of Zunyi Medical University, priority 2023, published 2024) can be followed below.

For series [1], the system named is CCl4-induced liver fibrosis in mice. Put plainly: CCl4-induced liver fibrosis in mice, HE staining and Sirius-red staining of liver tissue. In kind it is in vivo. As to the method: Experimental materials include 60 healthy male C57 mice (20-25g/mouse), gavage needles, 1 milliliter (mL) syringes, CCl4 solution, olive oil and sotalol solution. Experimental method is as follows. The CCl4 solution is dissolved in the olive oil solution (CCl4: olive oil=1:[…]), prepared and used immediately, concentration is 0.1milliliters per 20 grams (0.1 mL/20 g), intragastrically administered twice a week for a total of 8 weeks to the mice. The sotalol solution is mixed with physiological saline, prepared and used immediately, concentration is 1 millimole per liter (mM), 0.2 mL/20 g, and intraperitoneally injected once a day for a total of 6-8 weeks to the mice. The mice are randomly divided into four groups: a. a normal control group; b. a model group, mice are intragastrically administered the CCl4 for 8 weeks; c. a CCl4 and sotalol group, mice are treated with the CCl4 alone for 2 weeks, followed by concurrent administration of the sotalol and CCl4 for 6 weeks; d. a sotalol group, mice are intraperitoneally injected the sotalol for 8 weeks. The mice are sacrificed in sequence at the 2nd, 4th, 6th, and 8th weeks of modeling, one for each group, liver samples of the mice are taken out and placed in a -80 Celsius degree (° C.) refrigerator for quick-frozen storage, and other livers are fixed in 4% paraformaldehyde for 24 hours and then embedded in paraffins. […] Then, all mice are sacrificed, and eyeball blood of mice is taken to measure liver function indexes (alanine transaminase abbreviated as ALT, aspartate transaminase abbreviated as AST). In addition, the liver tissue is fixed with formaldehyde and embedded in paraffins for later use.

Series [2] deals with α-SMA. Description: α-SMA expression in liver tissue detected by immunohistochemistry. In kind it is in vivo. As to conditions: liver fibrosis mice induced by CCl4, treated with sotalol.
Method: Experimental methods are as follows. The paraffin blocks prepared in the embodiment 1 are taken and performed immunohistochemistry according to the procedures after slicing into slices. The slices are soaked in 100%, 95%, 80%, and 75% ethanol for 5 minutes sequentially in that order, then rinsed them with the PBS solution, catalase is removed by using hydrogen peroxide, and antigens are repaired by sodium citrate repair solution. After cooling, the treated slices are rinsed with the PBS solution, sealed at room temperature for 30 minutes, then incubated overnight at 4° C. with primary antibodies, and incubated at room temperature with secondary antibodies for 1 hour on the next day. Then, the incubated slices are stained with diaminobenzidine (DAB), counterstained with hematoxylin, differentiated with hydrochloric acid alcohol, dehydrated, sealed, and finally observed and photographed under the microscope.
The subject of series [3] is α-SMA, LC3, p62, N-cadherin, vimentin, ZO-1 in liver tissue. Description: Expression of α-SMA, autophagy-related index and EMT markers in liver tissue by Western-blot. As to conditions: liver tissue induced by CCl4, after treatment with sotalol. In kind it is in vivo, mice. The text has this: Experimental materials include mouse liver tissue, a tweezer, a scissor, 2 millimeters (mm) steel balls, a magnet, a cell lysis solution, a PBS solution, a bicinchoninic acid (BCA) protein quantitative kit, defatted milk powder, and primary antibodies and corresponding secondary antibodies related to α-SMA, autophagy and EMT. Experimental method are as follows. The liver tissue in the embodiment 1 is taken about the size of a grain of rice by using the tweezer and the scissor, added to labeled 1.5 mL Eppendorf (EP) tubes, two 2 mm steel balls and 200-250 microliter (μL) cell lysis solution are added into each of the EP tubes, after the parameters are set, and the EP tubes are placed in the grinder for full grinding. Then, the steel balls are sucked out by using the magnet, and after being applied to the ice for 30 minutes, the EP tubes are centrifuged at 12000 revolutions per minute (rpm) for 30 minutes at 4° C. A standard curve is made, 1 μL protein samples, 19 μL PBS solution and 200 μL (50:1) BCA working solution are added in each well of a 96-well plate, and two replicate wells are added per well. The 96-well plate is put in a 37°° C. drying oven for 30 minutes. The optical density (OD) value at 560 nanometers (nm) is measured by using an enzyme-linked immunosorbent assay (ELISA) on the machine to calculate the concentration of the protein. The protein is boiled in boiling water for 5 minutes before samples loading, and the samples are performed with gel electrophoresis, membrane transfer and blocking sequentially, then the treated samples are exposed after incubating with the primary antibodies and the secondary antibodies.

In series [4] the test system is HSC-T6 cells. Put plainly: Sotalol and TGF-β1 co-culture, proliferation of hepatic stellate cells detected by CCK-8. In kind it is cell-based, rat. As to conditions: sotalol 200, 400, 800, 1000 μM added 3 hours before TGF-β1 10 ng/ml; 48 hours incubation. As to the method:
Experimental materials include HSC-T6 cells (also referred to as immortalized hepatic rat stellate cell line), a Dulbecco's modified Eagle's medium (DMEM) complete medium, a 96-well plate, a counting chamber (also referred to as hemocytometer), CCK-8 working solution, and the like. Experimental method are as follows. The HSC-T6 cells are cultured in the DMEM culture medium containing 10% fetal bovine serum, 1% double antibodies (penicillin-streptomycin solution) and 1% nonessential amino acid (NEAA) at 37° C. and 5% CO2, and the cells are digested by using trypsin for passage cultivation after the cells are converged to 80% to 90%. Next, the cells are inoculated in the plate, specifically, a density of 7×10^6 cells per liter (cells/L) cell suspension is taken and added at 100 μL cell suspension per well to the 96-well culture plate, each group has 6 replicate wells. […] After incubation for 48 hours, 100 μL of “10% CCK-8 and 90% medium” mixed solution is added to each well and incubated for 1 hour to 4 hours at 37° C., the wavelength is set at 450 nm, and absorbance value is read and recorded at the corresponding wavelength by using a fully-automated enzyme labeling instrument. Effects of sotalol on cell proliferation are detected by CCK-8, and an optimal time of action and an optimal drug concentration are screened.

For series [5], the system named is α-SMA, LC3, p62, ZO-1, N-cadherin, vimentin in HSC-T6 cells. Put plainly: Expression of α-SMA, autophagy-related index and EMT markers in HSCs by Western-blot. In kind it is cell-based, rat. As to conditions: sotalol 400 μM, TGF-β1 10 ng/mL, 48 hours. On the procedure:
Experimental materials include HSC-T6 cells, a DMEM complete medium, cell culture dishes, a cell lysis solution, a PBS solution, a BCA protein quantitative kit, defatted milk powder, primary antibodies and corresponding secondary antibodies related to α-SMA, autophagy and EMT. Experimental method are as follows. The experiment is grouped into a normal control group, a TGF-β 1 group, a sotalol +TGF-β1 group, and a sotalol group, where the stimulation concentration of the TGF-β1 is 10 ng/mL and concentration of the sotalol is 400 μM. The HSC-T6 cells are cultured by using cell culture dishes, incubated, dosed, and added with TGF-β1according to the conditions described in the embodiment 4. After 48 hours, the incubated cells are rinsed by the precooled PBS solution for 3-4 times, and residual PBS liquid is absorbed with a filter paper, 50 μL radioimmune precipitation assay (RIPA) and 0.5 μL (100:1) phenylmethanesulfonyl fluoride (PMSF) with […] concentration are added in a 50 mL culture flask and placed on ice for 30 minutes. Then, the protein is scraped by a cell scraper from the culture flask and suctioned out into the EP tubes, and centrifuged at 12000 rpm for 30 minutes at 4° C. A standard curve is made, 1 μL protein samples, 19 μL PBS solution and 200 μL (50:1) BCA working solution are added in each well of the 96-well plate, and two replicate wells are added per well. The 96-well plate is put in a 37° C. drying oven for 30 minutes. The OD value at 560 nm is measured by using an enzyme-linked immunosorbent assay on the machine to calculate the concentration of the protein. The protein is boiled in boiling water for 5 minutes before samples loading, and the samples are performed with gel electrophoresis, membrane transfer and blocking sequentially, then the treated samples are exposed after incubating with the primary antibodies and the secondary antibodies.

Where [6] appears, read: CCl4 and sotalol group: CCl4 alone 2 weeks, then sotalol (1 mM, 0.2 mL/20 g, i.p. once a day) plus CCl4 for 6 weeks, vs model group.

As for `CC(C)NCC(O)c1ccc(NS(C)(=O)=O)cc1` (centres unmarked) [sotalol], in series [1] (setting [6]), the “degree of damage of the liver tissue (HE staining)” value is recorded as “significantly reduced” and the “degree of fibrous tissue proliferation (HE staining)” value is reported as “significantly reduced”. Also, the “collagen fibers (Sirius-red staining), induction of liver fibrosis by sotalol alone” value in series [1] (sotalol group: sotalol 1 mM, 0.2 mL/20 g, i.p. once a day for 8 weeks, no CCl4) is listed as “no obvious collagen fibers are observed”. Also, the “expression of α-SMA in liver tissue (immunohistochemistry)” value in series [2] is “down-regulate”. In series [3], the “accumulation of ZO-1 in liver tissue (Western-blot)” value is given as “promoted”, the “accumulation of p62 in liver tissue (Western-blot)” value was “promoted”, the “expression of LC3 in liver tissue (Western-blot)” value is reported as “significantly reduced” and the “expression of N-cadherin in liver tissue (Western-blot)” value is given as “inhibited”. In addition, in series [3], the “expression of vimentin in liver tissue (Western-blot)” value is “inhibited” and the “expression of α-SMA in liver tissue (Western-blot)” value was “significantly reduced”. Also, the “TGF-β1-induced proliferation trend of HSC-T6 cells (CCK-8)” value in series [4] is reported as “inhibited”. Besides, in series [5], the “accumulation of P62 in HSCs (Western-blot)” value is “promoted”, the “accumulation of ZO-1 in HSCs (Western-blot)” value was “promoted”, the “expression of LC3 in HSCs (Western-blot)” value was “significantly inhibited” and the “expression of N-cadherin in HSCs (Western-blot)” value is “inhibited”. In series [5], the “expression of vimentin in HSCs (Western-blot)” value is listed as “inhibited” and the “expression of α-SMA in HSCs (Western-blot)” value is given as “significantly reduced”.
